# Patent EP4725954A1, “MODIFIED PEPTIDES SUCH AS POLYPEPTIDES LA-19 AND TM-19 HAVING ANTI-AGING AND REPAIRING EFFECTS AND USE THEREOF” (Anhui Dexin Huahai Biological Technology Co. Ltd., priority 2023, dated 2025)
# Like-named read-outs stand apart in the source and are kept apart here. Where no end group is shown, it is not given here.
# Experiments:
# [1] = tested on: Human keratinocytes (HaCaT cells)
# Experimental: (§3) Human keratinocytes (HaCaT cells, Nanjing Saihongrui Biotechnology Co., Ltd.).
# (§4) Cell culture conditions: constant temperature and humidity incubator (37°C, 95% air, 5% carbon dioxide), 90% dulbecco's modified eagle medium (DMEM) high-glucose medium + 10% fetal bovine serum (Nanjing BioChannel Biotechnology Co., Ltd).
# (§5) A cell culture flask was taken out from the cell incubator, observed under a microscope, and the cells were in the logarithmic growth phase. In a clean bench, the medium was discarded, the cells were rinsed with 2 mL of phosphate buffer saline (PBS) and discarded; after repeating the above process once, 2 mL of 0.25% trypsin was added for digestion. The digestion was terminated by adding a corresponding volume of serum-containing medium, and the cells were transferred to a 15 mL conical centrifuge tube and centrifuged at 1000 rpm for 5 minutes. The serum-containing medium was resuspended in a resuspension volume of 2 mL. The cells were counted and calculated. The cells were then diluted, and plated; then the diluted cell suspension was taken, then the 96-well plate was paved with 10^4 cells/well, and the edge wells were filled with PBS. The well plate was taken out from the cell incubator, the medium was discarded, the well-plate of the administration group was added with the corresponding drugs and placed into the cell incubator for incubation for 48 hours. On the day of detection, the 96-well plate was taken out from the cell incubator, and added with 10 µL of a CCK-8 reagent per well in the clean bench, and then quickly placed into the cell incubator for 60 minutes, and the absorbance was measured with a microplate reader and the absorbance was measured at OD 450 nm. The average reading of the blank group was taken, and the numerical value of each group was divided by the average value to obtain the change in cell viability. Results are expressed as Mean ± SEM, compared with the blank group, *P<0.05 denotes a significant difference, **P<0.01, ***P<0.001, and ****P<0.0001 denote very significant differences.
# [2] = tested on: Human keratinocytes (HaCaT cells); assay: Cytotoxicity test of the polypeptides on keratinocytes (CCK-8); details: in words; for effect on cell growth: compared to the blank group
# Experimental: as §3, §4, §5
# IL-6 = assay: Anti-inflammatory activity test on keratinocytes: IL-6 ELISA; type: cell-based, Human; details: 10 µM; UVB 30 mJ/cm^2, HaCaT supernatant; blank 10.619, model 18.622; Mean ± SEM
# Experimental: (§1) Interleukin-6 ELISA assay kit (Shanghai Beyotime Biotechnology Co., Ltd.); tumor necrosis factor α ELISA assay kit (Shanghai Beyotime Biotechnology Co., Ltd.); 6-well plate (Wuxi NEST Biotechnology Co., Ltd.); and palmitoyl tetrapeptide-7 (Shenzhen Jianyuan Pharmaceutical Technology Co., Ltd.). Other experimental materials and instruments are the same as those in Examples 1, 2, and 3.
# (§2) The cells were counted and calculated. […] After 24 hours of incubation, cell UV modeling was performed. The UVB lamp tube was turned on, and the radiation intensity was measured with a UV irradiance meter. When the radiation intensity reached 500 µW/cm^2, the uncovered 6-well plate was placed and irradiated for 1 minute such that the radiation dose was up to 30 mJ/cm^2. At the end of the radiation, the 6-well plate was covered and placed into the cell incubator.
# TNF-α = assay: Anti-inflammatory activity test on keratinocytes: TNF-α ELISA; type: cell-based, Human; details: 10 µM; UVB 30 mJ/cm^2, HaCaT supernatant; blank 2.890, model 10.812; Mean ± SEM
# Experimental: as §1, §2
Substance,effect on cell growth [2],further results
LQSSLRALRQM [P5],–,effect on cell growth [1]: do not significantly inhibit cell growth
Ac-LQTSLRALRQIGGGTKAAA [P9],do not significantly inhibit cell growth,–
GGGLQSSLRALRQM [P4],do not significantly inhibit cell growth,–
Ac-LQSSLRALRQMGGGTKAAA [P6],do not significantly inhibit cell growth,–
LQSSLRALRQMGGGTKAAA-NH2 [P7],do not significantly inhibit cell growth,–
LQSSLRALRQMGGG [P3],do not significantly inhibit cell growth,–
TKAAAGGGLQTSLRALRQI [P10],do not significantly inhibit cell growth,–
TKAAAGGGLQSSLRALRQM [TM-19],slightly inhibit cell growth at low concentrations but promote cell proliferation at high concentrations,–
LQTSLRALRQIGGGTKAAA [P8],do not significantly inhibit cell growth,–
palmitoyl tetrapeptide-7,–,IL-6 activity (pg/mgprot) (IL-6): 13.901±1.356 pg/mgprot; TNF-α activity (pg/mgprot) (TNF-α): 6.832±2.461 pg/mgprot
LQSSLRALRQMGGGTKAAA [LA-19],do not significantly inhibit cell growth,toxicity to keratinocytes [2]: no obvious toxicity to keratinocytes
"TKAAA [Acein, reference compound]",do not significantly inhibit cell growth,–
